Key:
[1] = Monitoring of the plasma concentration of 3 octasaccharides in beagle dogs after subcutaneous administration (plasma filtration + anion-exchange HPLC); type: in vivo, male dogs of the beagle breed; conditions: 0.5 mg/kg each
Method: (§1) A plasma sample with a volume of between 100 and 1000 μl is withdrawn and, if appropriate, the internal standard is added to the latter.
(§2) After homogenization, the resulting solution is introduced into a 30 kD Ultrafree 05 ultrafiltration cartridge (Millipore) rinsed beforehand with 250 μl of water by centrifuging at 10 000 rev/min for 5 minutes. The plasma is introduced into the upper part of the cartridge once or twice, if the amounts to be filtered are greater than 500 μl.
(§3) The cartridge is centrifuged at 10 000 rev/min for between 1 and 2 hours and then the filtrate is withdrawn. If appropriate, the second part of the plasma to be filtered is introduced into the upper part of the cartridge and the latter is again centrifuged. The exact amount of plasma introduced will have been weighed. The cartridge is centrifuged until the protein residue in the upper part of the cartridge represents no more than approximately 10% of the initial part.
(§4) The filtrate is withdrawn and 210 μl of 3M KCl per ml of plasma filtered are added to the concentrate.
(§5) After homogenization, the cartridge is centrifuged at 10 000 rev/min for between 1 and 4 hours. The cartridge is centrifuged until the protein residue in the upper part of the cartridge represents no more than approximately 10% of the initial part.
(§6) The second filtrate is withdrawn and 210 μl of 3M KCl per ml of plasma filtered are added a second time to the concentrate.
(§7) The third filtrate is withdrawn and 250 μl of water per ml of plasma filtered are added.
(§8) The filtrates are combined and diluted 5 fold in water, and the whole is injected directly in anion-exchange HPLC. Immediately before injection, the pH of the injected solution is adjusted to 3 by addition of 1N HCl.
(§9) The filtered plasma is analyzed by anion-exchange HPLC.
(§10) The columns used are IonPAc As11 columns (Dionex), with a length of 25 cm and an internal diameter of 2 mm. The detector used is a UV spectrophotometer equipped with an array of diodes.
(§11) The whole of the […] is injected after adjustment of the pH to 3 by addition of N HCl. The flow rate chosen is 0.22 ml/min; the column temperature is 40° C.
(§12) Elution is carried out in gradient mode. The two solutions used are:
(§13) Solvent A: NaH2PO4 2.5 mM, brought to pH 2.9 by addition of H3PO4
(§14) Solvent B: NaClO4 1N, NaH2PO4 2.5 mM, brought to pH 3.0 by addition of H3PO4
(§15) The elution gradient is as follows:
(§16) T=0 min: % B=3; T=40 min: % B=60; T=60 min: % B=80
The evolution of a mixture of three octasaccharides in the blood of male dogs of the beagle breed is monitored. These 3 octasaccharides, symbolized ΔIIaIIsIsIs, ΔIsIIaIIsIs and ΔIIaIIsIsIs^1,6-anhydro, are the main affinity octasaccharides of the octasaccharide fractions of Lovenox®.
The mixture is administered subcutaneously to 3 male dogs of the beagle breed at a target dose with regard to each of these 3 constituents of 0.5 mg/kg. The administration solution is a 0.9% NaCl solution of the mixture of the 3 octasaccharides at the target concentration of 0.5 mg/ml. Blood samples of 5 ml are withdrawn at the times 0, 0.25 h, 0.5 h, 1 h, 2 h, 4 h, 6 h, 8 h, 24 h, 30 h and 48 h after administration. The blood samples withdrawn are collected in tubes containing 400 μl of a CTAD (citrate, theophylline, adenosine, dipyridamole) mixture. After homogenization, the solution is centrifuged at 3000 g at 15° C. for 15 min. The plasma supernatant is recovered and stored at −20° C. until use.
For the treatment of the plasma before HPLC injection, approximately 1 ml of plasma is withdrawn and weighed, to which 50 μl of a solution of the internal standard at a concentration of approximately 0.02 g/l are added.
The internal standard is chosen so that it is structurally as close as possible to the products to be analyzed. Its structure is given below.
The tetrasaccharide used makes it possible to correct the potentional influence of the variations in the extraction yield.
The plasma is treated and analyzed by HPLC.

ATIII = ATIII (Homo sapiens, UniProt P01008); experiment: Affinity for ATIII; type: binding
[2] = Monitoring of the plasma concentration of the main oligosaccharides of a VLMWH in human volunteers (plasma filtration + anion-exchange HPLC); type: in vivo
Method: as §1, §2, §3, §4, §5, §6, §7, §8, §9, §10, §11, §12, §13, §14, §15, §16
A VLMWH with an average molecular weight of 2500 Da is administered at the target dose of 1.4 mg/kg to human volunteers. Blood samples are withdrawn at the times 0, 0.25 h, 0.5 h, 0.75 h, 1 h, 1.25 h, 1.5 h, 2 h, 2.5 h, 3 h, 3.5 h, 4 h, 4.5 h, 5 h, 6 h, 7 h, 8 h, 9 h, 10 h, 12 h, 14 h and 24 h after administration.
As the VLMWH used is a complex mixture of oligosaccharides, the study was limited to certain components chosen from this mixture.

Chain of ATIII (P01008 33-464, species assumed): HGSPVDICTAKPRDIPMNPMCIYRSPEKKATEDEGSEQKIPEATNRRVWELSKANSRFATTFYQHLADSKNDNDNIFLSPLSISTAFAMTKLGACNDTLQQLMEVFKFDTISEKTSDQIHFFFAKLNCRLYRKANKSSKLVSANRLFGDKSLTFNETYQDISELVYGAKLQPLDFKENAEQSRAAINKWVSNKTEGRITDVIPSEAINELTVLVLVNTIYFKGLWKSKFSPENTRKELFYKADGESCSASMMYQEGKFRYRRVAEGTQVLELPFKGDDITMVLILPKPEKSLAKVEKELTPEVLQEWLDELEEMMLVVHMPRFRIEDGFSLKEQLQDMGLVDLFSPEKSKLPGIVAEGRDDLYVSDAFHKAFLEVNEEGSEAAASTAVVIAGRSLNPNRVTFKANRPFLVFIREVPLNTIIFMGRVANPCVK

CC(=O)N[C@H]1[C@@H](O[C@H]2[C@H](O)[C@@H](O)[C@H](O[C@H]3[C@H](OS(=O)(=O)O)[C@@H](NS(=O)(=O)O)[C@@H](O[C@H]4[C@H](O)[C@@H](OS(=O)(=O)O)[C@H](O[C@H]5[C@H](O)[C@@H](NS(=O)(=O)O)[C@@H](O[C@H]6[C@H](O)[C@@H](OS(=O)(=O)O)[C@H](O[C@H]7[C@H](O)C(NS(=O)(=O)O)[C@@H]8OC[C@H]7O8)O[C@H]6C(=O)O)O[C@@H]5COS(=O)(=O)O)O[C@H]4C(=O)O)O[C@@H]3COS(=O)(=O)O)O[C@@H]2C(=O)O)O[C@H](COS(=O)(=O)O)[C@@H](O[C@@H]2OC(C(=O)O)=C[C@H](O)[C@H]2O)[C@@H]1O (stereo partly shown) [ΔIIaIIsIsIs^1,6-anhydro]
plasma concentration ([1]; Dog 1, 0 h after subcutaneous administration): 0 nM
plasma concentration ([1]; Dog 1, 0.25 h after subcutaneous administration): 50 nM
plasma concentration ([1]; Dog 1, 0.5 h after subcutaneous administration): 170 nM
plasma concentration ([1]; Dog 1, 1 h after subcutaneous administration): 340 nM
plasma concentration ([1]; Dog 1, 2 h after subcutaneous administration): 560 nM
plasma concentration ([1]; Dog 1, 4 h after subcutaneous administration): 440 nM
plasma concentration ([1]; Dog 1, 6 h after subcutaneous administration): 370 nM
plasma concentration ([1]; Dog 1, 8 h after subcutaneous administration): 300 nM
plasma concentration ([1]; Dog 1, 24 h after subcutaneous administration): 60 nM
plasma concentration ([1]; Dog 1, 30 h after subcutaneous administration): 30 nM
plasma concentration ([1]; Dog 1, 48 h after subcutaneous administration): 10 nM
plasma concentration ([1]; Dog 2, 0 h after subcutaneous administration): 0 nM
plasma concentration ([1]; Dog 2, 0.25 h after subcutaneous administration): 50 nM
plasma concentration ([1]; Dog 2, 0.5 h after subcutaneous administration): 100 nM
plasma concentration ([1]; Dog 2, 1 h after subcutaneous administration): 210 nM
plasma concentration ([1]; Dog 2, 2 h after subcutaneous administration): 320 nM
plasma concentration ([1]; Dog 2, 4 h after subcutaneous administration): 300 nM
plasma concentration ([1]; Dog 2, 6 h after subcutaneous administration): 370 nM
plasma concentration ([1]; Dog 2, 8 h after subcutaneous administration): 250 nM
plasma concentration ([1]; Dog 2, 24 h after subcutaneous administration): 50 nM
plasma concentration ([1]; Dog 2, 30 h after subcutaneous administration): 30 nM
plasma concentration ([1]; Dog 2, 48 h after subcutaneous administration): 10 nM
plasma concentration ([1]; Dog 3, 0 h after subcutaneous administration): 0 nM
plasma concentration ([1]; Dog 3, 0.25 h after subcutaneous administration): 60 nM
plasma concentration ([1]; Dog 3, 0.5 h after subcutaneous administration): 170 nM
plasma concentration ([1]; Dog 3, 1 h after subcutaneous administration): 240 nM
plasma concentration ([1]; Dog 3, 2 h after subcutaneous administration): 340 nM
plasma concentration ([1]; Dog 3, 4 h after subcutaneous administration): 460 nM
plasma concentration ([1]; Dog 3, 6 h after subcutaneous administration): 380 nM
plasma concentration ([1]; Dog 3, 8 h after subcutaneous administration): 300 nM
plasma concentration ([1]; Dog 3, 24 h after subcutaneous administration): 50 nM
plasma concentration ([1]; Dog 3, 30 h after subcutaneous administration): 40 nM
plasma concentration ([1]; Dog 3, 48 h after subcutaneous administration): 10 nM
affinity for ATIII (ATIII): high affinity for ATIII

O=C(O)C1=CC(O)C(OS(=O)(=O)O)C(OC2C(COS(=O)(=O)O)OC(O)C(NS(=O)(=O)O)C2O)O1 (stereo not shown) [ΔIs]
plasma concentration ([2]; 0 h after administration of VLMWH (2500 Da) 1.4 mg/kg): 0 nM
plasma concentration ([2]; 0.25 h after administration of VLMWH (2500 Da) 1.4 mg/kg): 240 nM
plasma concentration ([2]; 0.5 h after administration of VLMWH (2500 Da) 1.4 mg/kg): 300 nM
plasma concentration ([2]; 0.75 h after administration of VLMWH (2500 Da) 1.4 mg/kg): 260 nM
plasma concentration ([2]; 1 h after administration of VLMWH (2500 Da) 1.4 mg/kg): 230 nM
plasma concentration ([2]; 1.25 h after administration of VLMWH (2500 Da) 1.4 mg/kg): 200 nM
plasma concentration ([2]; 1.5 h after administration of VLMWH (2500 Da) 1.4 mg/kg): 190 nM
plasma concentration ([2]; 2 h after administration of VLMWH (2500 Da) 1.4 mg/kg): 160 nM
plasma concentration ([2]; 2.5 h after administration of VLMWH (2500 Da) 1.4 mg/kg): 110 nM
plasma concentration ([2]; 3 h after administration of VLMWH (2500 Da) 1.4 mg/kg): 100 nM
plasma concentration ([2]; 3.5 h after administration of VLMWH (2500 Da) 1.4 mg/kg): 80 nM
plasma concentration ([2]; 4 h after administration of VLMWH (2500 Da) 1.4 mg/kg): 70 nM
plasma concentration ([2]; 4.5 h after administration of VLMWH (2500 Da) 1.4 mg/kg): 60 nM
plasma concentration ([2]; 5 h after administration of VLMWH (2500 Da) 1.4 mg/kg): 40 nM
plasma concentration ([2]; 6 h after administration of VLMWH (2500 Da) 1.4 mg/kg): 30 nM
plasma concentration ([2]; 7 h after administration of VLMWH (2500 Da) 1.4 mg/kg): 30 nM
plasma concentration ([2]; 8 h after administration of VLMWH (2500 Da) 1.4 mg/kg): 20 nM
plasma concentration ([2]; 9 h after administration of VLMWH (2500 Da) 1.4 mg/kg): 10 nM
plasma concentration ([2]; 10 h after administration of VLMWH (2500 Da) 1.4 mg/kg): 10 nM
plasma concentration ([2]; 12 h after administration of VLMWH (2500 Da) 1.4 mg/kg): 0 nM
plasma concentration ([2]; 14 h after administration of VLMWH (2500 Da) 1.4 mg/kg): 0 nM
